# Test results reported in doi:10.1101/2023.05.15.540887, “Comparative analysis of drug-like EP300/CREBBP acetyltransferase inhibitors” (bioRxiv, 2023).
# Key:
# [1] = test system: histone H3 acetylation in MCF-10A cells (PANK4 KO+WT, KO+EV); experiment: Western blot of H3K18Ac and H3K23Ac in MCF-10A PANK4 KO+WT and KO+EV cells; assay type: cell-based, human; conditions: 3 h, 1 at micromolar and 3 at nanomolar concentrations
# Source text: Recently, we reported the discovery of a phosphorylation-dependent signaling cascade that can upregulate CoA biosynthesis in human cells by inhibiting the activity of PANK4, a negative regulator of this pathway (Fig. 4a).[34] This occurs via PANK4’s ability to reverse the rate-limiting step in CoA production, which is phosphorylation of pantothenate (vitamin B5) by PANK1–3.[35] […] Considering how to resolve these mechanisms, we wondered if this may be an area where knowledge of the comparative pharmacology of EP300/CREBBP inhibitors could be usefully leveraged. Specifically, we hypothesized that if PANK4 inactivation (knockout; KO) led to a resistance mechanism dependent on EP300/CREBBP active site occupancy (e.g. competitive binding), then the differential potency of 1 and 3 would be preserved – albeit over a shifted concentration range – in the resistant PANK4 KO cell line (Fig. 4b). […] To correlate these observations with the effect of the compounds on cellular acetyltransferase activity, we monitored histone H3 acetylation at an EP300/CREBBP-dependent site (H3K18Ac) and EP300/CREBBP-independent site (H3K23Ac). […]
# Histone samples were quantified using the Precision Red Protein Assay (Cytoskeleton #ADV02). […]
# [2] = test system: HT29; experiment: NCI-60 growth inhibition (sulforhodamine B); assay type: cell-based, human; conditions: HT29 (Colon Cancer), negative log of Molar conc., LCONC -8
# [3] = test system: SF-539; experiment: NCI-60 growth inhibition (sulforhodamine B); assay type: cell-based, human; conditions: SF-539 (CNS Cancer), negative log of Molar conc., LCONC -8
# [4] = test system: UACC-62; experiment: NCI-60 growth inhibition (sulforhodamine B); assay type: cell-based, human; conditions: UACC-62 (Melanoma), negative log of Molar conc., LCONC -8
# [5] = test system: M14; conditions: M14 (Melanoma); negative log of Molar conc.; LCONC -8
# [6] = Homo sapiens, read-out: IC50 NLOGVALUE
# [7] = Homo sapiens, read-out: LC50 NLOGVALUE
compound,measurement,setting,value
C[C@H](CN[C@@H](C(=O)Nc1ccc(-c2cnn(C)c2)cn1)c1ccccc1)c1ccc(C#N)cc1 [CPI-1612],"effect on H3K18Ac, PANK4 KO+EV versus KO+WT",[1],PANK4 KO lessening the effects
same,TGI NLOGVALUE,[2],4
same,GI50,"[2]; Homo sapiens, HT-29, read-out: GI50 NLOGVALUE (converted)",49 nM
same,IC50,"[2]; Homo sapiens, HT-29, read-out: IC50 NLOGVALUE (converted)",437 nM
same,GI50,"[3]; Homo sapiens, read-out: GI50 NLOGVALUE (converted)",2090 nM
same,IC50,[3]; [6],> 100000 nM
same,CC50,[3]; [7],> 100000 nM
same,TGI NLOGVALUE,[3],4
same,GI50,"[4]; Homo sapiens, read-out: GI50 NLOGVALUE",> 100000 nM
same,IC50,[4]; [6],> 100000 nM
same,CC50,[4]; [7],> 100000 nM
same,TGI NLOGVALUE,[4],4
same,TGI NLOGVALUE,[5],4
